Where a SMILES comes first, the peptide text is derived from it. [ ]: non-standard residue; d: D form.
How the values were obtained:
[1] = tested on: human retinal endothelial cells; experiment: ICAM-1 upregulation in human retinal endothelial cells (flow cytometry); format: cell-based; settings: 1 μM, 24 h
Experimental: FIG. 18 illustrates graphs showing ri CD40-TRAF2,3 blocking peptide inhibits CD40-driven upregulation of ICAM-1. Human retinal endothelial cells were treated with ri control peptide (Ctr P) or ri CD40-TRAF2,3 blocking peptide (T2,3 BP; both at 1 μM) followed by stimulation with CD154 or TNF-α. Expression of ICAM-1 was assessed by flow cytometry at 24 h. Data shown represent Mean±SD. Results are representative of 2 independent experiments. **P<0.01.
Primary human retinal endothelial cells were obtained as described (9) and cultured in complete medium supplemented with endothelial cell growth supplement from bovine pituitary (15 μg/ml; Sigma Chemical, St Louis, MO) and insulin/transferrin/selenium (Sigma Chemical). Cell identity was confirmed by incorporation of acetylated low-density lipoprotein (>90%). Endothelial cells were used between passages 3 to 6. The human Müller cell line MIO M1 (gift from Dr. Gloria Limb; University College London, UK; >95% vimentin^+, CRALBP^+ and GFAP^−) was also used. Endothelial cells were incubated with multimeric human CD154 to induce CD40 stimulation (obtained from Dr. Richard Kornbluth, Multimeric Biotherapeutics Inc., La Jolla, CA) or with a non-functional CD154 mutant (T147N) as control.
Cells were incubated with anti-ICAM-1 mAb (eBiosciences). After fixation with 1% paraformaldehyde, cells were analyzed using an LSR II (Becton Dickinson). […]

[2] = tested on: retinas subjected to I/R; experiment: Model of retinal ischemia/reperfusion (I/R), intravitreal peptide; format: in vivo, B6 mice
Experimental: FIGS. 20(A-C) illustrate images and graphs showing ri CD40-TRAF2,3 blocking peptide protects against loss of ganglion cells and leukocyte infiltration in retinas subjected to I/R. One eye from each B6 and CD40^−/− mouse was subjected to I/R. Contralateral non-ischemic eye was used as control. Eyes subjected to I/R in B6 mice were treated intravitreously with or without ri control peptide, ri CD40-TRAF2,3 blocking peptide (both 1 μg) 30 min prior to increase in IOP. Eyes were collected 2 d after I/R. A marked decrease in the number of ganglion cells is observed in ischemic eyes from B6 treated with ri control peptide or vehicle (original magnification ×400). […] Arrowhead plus asterix identifies a PMN magnified in the inset (original magnification ×600). Scale bar, 50 μm. Number of ganglion cells per mm. Number of infiltrating leukocytes in the inner retina and vitreous per section. GCL=Ganglion cell layer; IPL=Inner plexiform layer; INL=Inner nuclear layer. OPL=Outer plexiform layer; ONL=Outer nuclear layer. Data shown represent Mean±SEM (9 mice per group). *P<0.05; **P<0.01; […].
FIG. 21 illustrates graphs showing ri CD40-TRAF2,3 blocking peptide impairs upregulation of NOS2 and COX-2 in retinas subjected to I/R. One eye of each mouse was treated as above and subjected to I/R. Eyes were collected after 2 d. mRNA levels of NOS2 and COX-2 were assessed by quantitative real time PCR. One non-ischemic eye from a B6 mouse was given an arbitrary value of 1 and data are expressed as fold-increase compared to this animal. Data shown represent Mean±SEM (7-9 mice per group). ***P<0.001.
FIGS. 22(A-B) illustrate graphs and images showing ri CD40-TRAF2,3 blocking peptide impairs upregulation of ICAM-1 and KC/CXCL1 in retinal endothelial cells from retinas subjected to I/R. One eye of each mouse was subjected to I/R. Eyes were collected after 2 d. mRNA levels of ICAM-1 and KC/CXCL1 were assessed by quantitative real time PCR. One non-ischemic eye from a B6 mouse was given an arbitrary value of 1 and data are expressed as fold-increase compared to this animal. Data shown represent Mean±SEM (7-9 mice per group). ***P<0.001. Retinal sections were incubated with Tomato Lectin (labels endothelial cells) plus either anti-ICAM-1 or anti-KC/CXCL1 Ab. Original magnification ×600. GCL=Ganglion cell layer; IPL=Inner plexiform layer; INL=Inner nuclear layer. Scale bar, 10 μm. 6 mice/group.
FIG. 23 illustrates images showing ri CD40-TRAF2,3 blocking peptide impairs NOS2 and KC/CXCL1 upregulation in Müller cells from retinas subjected to I/R. Eyes from B6 mice were treated with control peptide or CD40-TRAF2,3 blocking peptide, subjected to I/R and collected after 2 d. Retinal sections were incubated with anti-Vimentin Ab (labels Müller cells) plus either anti-NOS2 or anti-KC/CXCL1 Ab. Protein expression at the level of Müller cells stalks. […]. Original magnification ×600. Scale bar, 10 μm. 6 mice/group.
FIGS. 24(A-D) illustrate images and graphs showing ri CD40-TRAF2,3 blocking peptide protects against loss of ganglion neurons and inflammation when administered after retinal I/R. One eye from each B6 mouse was subjected to I/R. Non-ischemic eyes were used as controls. Eyes that were subjected to I/R received either ri control peptide or ri CD40-TRAF2,3 blocking peptide 90 min after increase in IOP. Eyes were collected 2 d after I/R. Administration of the blocking peptide protects against ganglion cell loss and infiltration by leukocytes (arrowhead). Original magnification ×400. Scale bar, 50 μm. Number of ganglion cells per mm. Number of leukocytes in the inner retina and vitreous per section. mRNA levels of ICAM-1, KC/CXCL1, NOS2 and COX-2 were assessed by quantitative real time PCR as above. Data shown represent Mean±SEM (7-9 mice per group). **P<0.01; ***P<0.001. GCL=Ganglion cell layer; IPL=Inner plexiform layer; INL=Inner nuclear layer. […]

[3] = 1 μg intravitreal prior to I/R, 2 d, real time PCR
[4] = peptide administered 90 min post-retinal ischemia, 2 d, mRNA
[5] = prior to I/R, 2 d, immunohistochemistry

CC(C)C[C@@H](NC(=O)[C@@H](Cc1c[nH]cn1)NC(=O)CNC(=O)[C@@H](Cc1ccc(O)cc1)NC(=O)CNC(=O)[C@@H](CCCNC(=N)N)NC(=O)[C@@H](CCCCN)NC(=O)[C@@H](CCCCN)NC(=O)[C@@H](CCCNC(=N)N)NC(=O)[C@@H](CCCNC(=N)N)NC(=O)[C@@H](CCC(N)=O)NC(=O)[C@@H](CCCNC(=N)N)NC(=O)[C@@H](CCCNC(=N)N)NC(=O)[C@H](N)CCCNC(=N)N)C(=O)N[C@@H](C(=O)N[C@H](CCC(=O)O)C(=O)N[C@H](CCC(N)=O)C(=O)N[C@@H](C(=O)N[C@H](Cc1c[nH]cn1)C(=O)N[C@H](C)C(=O)N[C@H](C)C(=O)N[C@@H](C(=O)N[C@H](CC(N)=O)C(=O)O)[C@H](C)O)C(C)C)[C@H](C)O [ri CD40-TRAF2,3 blocking peptide, NH2-rrrqrrkkrgy ghlteqvhaatn-OH] (H-[dR][dR][dR][dQ][dR][dR][dK][dK][dR]G[dY]G[dH][dL][dT][dE][dQ][dV][dH][dA][dA][dT][dN]-OH) was tested, and the “upregulation of ICAM-1 in response to CD154” value ([1]; CD154 stimulation, P<0.01) was “impaired upregulation of ICAM-1”, the “TNF-α-induced upregulation of ICAM-1” value ([1]; TNF-α stimulation) was “no effect” and the “COX-2 mRNA levels in retina” value [2, 3] was “impaired upregulation”. For the same compound, the “ICAM-1 mRNA levels in retina” value [2, 3] was “significant reduction”, the “KC/CXCL1 mRNA levels in retina” value [2, 3] was “significant reduction” and the “NOS2 mRNA levels in retina” value [2, 3] was “impaired upregulation”. The “PMN infiltration in the inner retina and vitreous” value ([2]; 1 μg intravitreal prior to I/R, 2 d after I/R) was “diminished inflammatory infiltrate”, the “loss of ganglion cells” value ([2]; 1 μg intravitreal prior to I/R, eyes collected 2 d after I/R) was “significant attenuation in the loss of ganglion cells” and the leukocyte recruitment ([2]; peptide administered 90 min post-retinal ischemia, 2 d) was “protected against”. The “upregulation of COX-2” value [2, 4] was “protected against”, the “upregulation of ICAM-1” value [2, 4] was “protected against” and the “upregulation of KC/CXCL1” value [2, 4] was “protected against”. The “upregulation of NOS2” value [2, 4] was “protected against”, the ganglion cell loss ([2]; peptide administered 90 min post-retinal ischemia, eyes collected 2 d after I/R) was “protected against” and the “expression of ICAM-1 in retinal endothelial cells” value [2, 5] was “decreased expression”. For the same compound, the “expression of KC/CXCL1 in Müller cells” value [2, 5] was “impaired expression”, the “expression of KC/CXCL1 in retinal endothelial cells” value [2, 5] was “decreased expression” and the “expression of NOS2 in Müller cells” value [2, 5] was “impaired expression”.
